Assay results from US7217735B1, “Methods and compositions for enhancing delivery of therapeutic agents to tissues” (priority 1999, dated 2007).

Tests used:
microtubule = conditions: cited from earlier work
PC3 xenograft tumor [1] = assay: Doxorubicin accumulation and penetration in tumor histocultures (fluorescence microscopy); assay type: in vitro ADME, human; conditions: for Tissue-to-medium concentration ratio at 72 hr / Tissue concentration at 72 hr: PC3 xenograft tumor; for Tissue concentration at 72 hr: in µM; for distribution of fluorescence signal: 5 or 20 μM
Method: The androgen-independent human prostate PC3 cells were maintained as xenograft tumors in male nude mice according to the previously published procedures (Pretlow et al., 1993; Nagabhushan et al., 1996). Briefly, minced tumor tissue mixed with the same volume of Matrigel was implanted into both flanks of the nude mice at 0.3 ml per site. Tumors were harvested when they reached a size of 1 g at about 1.5 to 2 months after implantation.
(§1) In this example, the penetration of doxorubicin into multilayer tissue was monitored using prostate tumor specimens obtained from human cancer patients and using the human prostate PC3 xenograft tumor maintained in athymic mice. Doxorubicin was monitored by fluorescence.
(§2) Histocultures of tumors were incubated with 1, 5 or 20:M doxorubicin as described in Example 1. […] At 4, 12, 24, 36, 48, and 72 hours, histocultures were collected and processed as described in Example 1. The fluorescence emitted by doxorubicin was visualized using fluorescence microscopy. The excitation and emission wavelengths were 546 nm and 565 nm, respectively. Microscopic images were captured using a Charged Couple Device (CCD) camera and the captured images were analyzed using Optimas image analysis software (Silver spring, MD). The doxorubicin concentration in tissues was quantified using standard curves (each curve contained six data points), established as follows. Samples for the standard curves were prepared by applying known amounts of doxorubicin in solution to microscope sections of blank dog prostate tissue. The standard doxorubicin solutions (2:1) were pipetted on 10:m-thick blank tissue sections, and carefully spread over a surface area of approximately 1.5–2 cm^2. The standard slides were scanned using the same conditions as the samples. The average fluorescence intensity per area were measured. Plots of the fluorescence readings against the applied doxorubicin concentrations in the standard curve samples provided the standard curves used to quantify the doxorubicin in the actual samples. For the latter, at least three sections were used to obtain the mean value in one tumor, and at least three tumors were used to obtain the mean value at each time point.
(§3) The rate of doxorubicin penetration into patient and PC3 xenograft tumors was monitored using fluorescence microscopy.

[2] = test system: human prostate tumor histocultures; conditions: cited from earlier work
[3] = test system: patient prostate tumors and PC3 xenograft tumors; assay: Doxorubicin concentration versus distance from tumor periphery (FIG. 4); assay type: in vitro ADME, human
Method: as §2, with “The standard doxorubicin solutions (2:1) were pipetted on 10:m-thick blank tissue sections, and carefully spread over a surface area of approximately 1.5–2 cm^2. The standard slides were scanned using the same conditions as the samples.” left out, “For the latter, at least three sections were used to obtain the mean value in one tumor, and at least three tumors were used to obtain the mean value at each time point.” left out
FIG. 4 summarizes the drug concentration in tumor tissue, expressed as tissue-to-medium concentration ratio, as a function of the distance from the periphery of the tumor histocultures. […]

PC3 xenograft tumor [4] = assay: Tumor cell density after doxorubicin treatment; assay type: cell-based, human; conditions: 5 or 20 μM
Method: The fractions of stromal tissue and tumor cells in each histoculture were measured using image analysis. Briefly, stromal and tumor cells of a 100× magnification field were outlined with the computer mouse. The sizes of each of these regions were determined via image analysis by counting the number of pixels in the region. […] Apoptotic cells were determined based on morphological changes in tumor cells such as chromatin condensation and margination, disappearance of nucleoli, formation of membrane blebs, apoptotic bodies and/or cell shrinkage (Kerr J F R et al. (1994) Cancer 73:2013). […] For each tumor piece, 50 to 100 images were processed, and the fractions of the tumor represented by tumor cells, stromal tissue, and interstitial space were calculated.

patient prostate tumors = assay: Doxorubicin accumulation and penetration in tumor histocultures (fluorescence microscopy); assay type: in vitro ADME, human; conditions: for Tissue concentration at 72 hr: in µM; for distribution of fluorescence signal: 5 or 20 μM
Method: as §1, §2, §3

## CC(=O)O[C@H]1C(=O)[C@@]2(C)[C@H]([C@H](OC(=O)c3ccccc3)[C@]3(O)C[C@H](OC(=O)[C@H](O)[C@@H](NC(=O)c4ccccc4)c4ccccc4)C(C)=C1C3(C)C)[C@]1(OC(C)=O)CO[C@@H]1C[C@@H]2O [7-epitaxol]
microtubule
  microtubule binding affinity compared with paclitaxel: similar

## COc1cccc2c1C(=O)c1c(O)c3c(c(O)c1C2=O)C[C@@](O)(C(=O)CO)C[C@@H]3O[C@H]1C[C@H](N)[C@H](O)[C@H](C)O1 [doxorubicin]
PC3 xenograft tumor [1]; 1 μM in culture medium
  PC3 xenograft-to-patient tumor concentration ratio at 72 hr: 1.15
  Tissue-to-medium concentration ratio at 72 hr: 33.6 ± 3.9
  Tissue concentration at 72 hr: 33.6 ± 3.9
PC3 xenograft tumor [1]; 5 μM in culture medium
  PC3 xenograft-to-patient tumor concentration ratio at 72 hr: 1.35
  Tissue-to-medium concentration ratio at 72 hr: 42.7 ± 3.3
  Tissue concentration at 72 hr: 213 ± 16.4
PC3 xenograft tumor [1]; 20 μM in culture medium
  PC3 xenograft-to-patient tumor concentration ratio at 72 hr: 1.5
  Tissue-to-medium concentration ratio at 72 hr: 55.3 ± 9.6
  Tissue concentration at 72 hr: 1107 ± 193
PC3 xenograft tumor [1]; xenograft tumor, 1 μM, at 72 hr
  drug distribution: remained confined to the periphery
PC3 xenograft tumor [1]; xenograft tumor, after 36 hr
  distribution of fluorescence signal: evenly distributed
PC3 xenograft tumor [1]; xenograft tumor, first 24 hr
  distribution of fluorescence signal: confined to the periphery
[2]; human prostate tumor histocultures, read-out: IC50, inhibition of tumor cell growth
  IC50: 61 nM
[2]; human prostate tumor histocultures, read-out: LC50, tumor cell death
  CC50: 2100 nM
[2]; patient prostate tumors
  concentration sufficient to produce 50% cell death: 2.1 :M
  concentration sufficient to produce 90% cell death: 4.2 :M
  concentration sufficient to produce 90% inhibition of tumor cell proliferation: 0.4 :M
[3]; 1 μM
  equilibrium between far end (325 μm) and periphery (75 μm) concentration: did not reach equilibrium
[3]; 5 and 20 μM
  time at which equilibrium between far end and periphery was attained: 36 h
PC3 xenograft tumor [4]
  cell density in the periphery of the tumor: decreased with time
Patient prostate tumors; 1 μM in culture medium
  Tissue-to-medium concentration ratio at 72 hr: 29.2 ± 7.8
  Tissue concentration at 72 hr: 29.2 ± 7.8
Patient prostate tumors; 1 μM, by 72 hr
  drug distribution: distributed evenly throughout the patient tumors
Patient prostate tumors; 5 μM in culture medium
  Tissue-to-medium concentration ratio at 72 hr: 31.6 ± 14.2
  Tissue concentration at 72 hr: 158 ± 70.9
Patient prostate tumors; 20 μM in culture medium
  Tissue-to-medium concentration ratio at 72 hr: 36.9 ± 26.5
  Tissue concentration at 72 hr: 739 ± 531
Patient prostate tumors; after 24 hr
  distribution of fluorescence signal: evenly distributed throughout the histoculture
Patient prostate tumors; first 12 hr
  distribution of fluorescence signal: confined to the periphery
